Measured values: ChEMBL document CHEMBL6074659, “Development of an Intravenously Stable Disulfide-Rich Peptide for the Treatment of Chemotherapy-Induced Neuropathic Pain” (J Med Chem, 2024)
Active and inactive are the calls of the source. The calls are words filed in the database; no cut-off is given here. Residues, ends and D or L forms follow the SMILES beside them.

Legend:
[1] = target: Neuronal acetylcholine receptor; alpha9/alpha10 (Homo sapiens) (UniProt Q9UGM1+Q9GZZ6); assay: Antagonist activity at human alpha9alpha10 nAChR expressed in acetylcholine-induced Xenopus laevis oocytes assessed as inhibition of acetylcholine-induced current at 10 nM at -80 mV holding potential incubated for 5 mins by two electrode voltage-clamp assay relative to control; assay type: cell-based; settings: Oocyte, filed as antagonist
[2] = test system: Rattus norvegicus; assay: Analgesic activity in Oxaliplatin-induced cold allodynia SPF male Sprague-Dawley rat assessed as increase in latency at 200 microg/kg, iv measured at 72 hrs by cold plate test; assay type: functional, organism-based; settings: dose 200.0 µg/kg
[3] = target: T1, Neuronal acetylcholine receptor; alpha9/alpha10 (Homo sapiens, UniProt Q9GZZ6+Q9UGM1); assay: Inhibition of human alpha9alpha10 nAChR assessed as reduction in acetylcholine-induced current incubated for 5 mins by two electrode voltage-clamp assay; assay type: protein-complex assay
T1 sequence (Q9UGM1 whole entry): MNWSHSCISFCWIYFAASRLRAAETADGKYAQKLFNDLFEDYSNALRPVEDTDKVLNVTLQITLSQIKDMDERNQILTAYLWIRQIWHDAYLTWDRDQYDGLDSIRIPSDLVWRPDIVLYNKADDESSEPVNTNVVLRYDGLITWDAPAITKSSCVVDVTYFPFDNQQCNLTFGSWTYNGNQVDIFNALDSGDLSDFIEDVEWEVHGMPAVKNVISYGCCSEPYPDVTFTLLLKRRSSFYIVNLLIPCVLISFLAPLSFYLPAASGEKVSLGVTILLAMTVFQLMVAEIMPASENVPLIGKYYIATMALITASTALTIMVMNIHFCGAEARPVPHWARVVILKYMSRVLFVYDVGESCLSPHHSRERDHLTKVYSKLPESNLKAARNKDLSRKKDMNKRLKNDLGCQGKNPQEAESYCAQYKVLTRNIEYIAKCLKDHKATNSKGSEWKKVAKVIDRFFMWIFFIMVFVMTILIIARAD
T1 sequence (Q9GZZ6 whole entry): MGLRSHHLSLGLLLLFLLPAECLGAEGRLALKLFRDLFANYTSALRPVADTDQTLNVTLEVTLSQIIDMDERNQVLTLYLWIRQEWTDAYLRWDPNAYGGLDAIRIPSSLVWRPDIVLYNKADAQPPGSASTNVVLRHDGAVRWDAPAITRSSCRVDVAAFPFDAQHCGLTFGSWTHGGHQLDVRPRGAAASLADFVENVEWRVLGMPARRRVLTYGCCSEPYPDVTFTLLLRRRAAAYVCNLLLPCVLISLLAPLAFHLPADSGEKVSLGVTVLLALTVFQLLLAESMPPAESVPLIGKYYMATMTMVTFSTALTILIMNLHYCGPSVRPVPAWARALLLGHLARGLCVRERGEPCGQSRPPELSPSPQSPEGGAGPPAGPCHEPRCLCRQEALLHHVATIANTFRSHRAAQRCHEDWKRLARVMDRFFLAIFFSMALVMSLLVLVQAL

[4] = Stability in human serum assessed as half life incubated upto 48 hrs by RP-HPLC analysis; assay type: ADME, cell-free
[5] = Stability in human serum assessed as parent compound remaining incubated at 48 hrs by RP-HPLC analysis; assay type: ADME, cell-free; settings: read-out: Stability
[6] = target: T1, Neuronal acetylcholine receptor; alpha9/alpha10; assay: Antagonist activity at human alpha9alpha10 nAChR expressed in acetylcholine-induced Xenopus laevis oocytes assessed as inhibition of acetylcholine-induced current at -80 mV holding potential incubated for 5 mins by two electrode voltage-clamp assay; assay type: cell-based, Oocyte
[7] = target: Neuronal acetylcholine receptor; alpha3/beta2 (Homo sapiens, UniProt P17787+P32297); assay: Inhibition of human alpha3beta2 nAChR assessed as reduction in acetylcholine-induced current incubated for 5 mins by two electrode voltage-clamp assay; assay type: protein-complex assay
Neuronal acetylcholine receptor; alpha3/beta2, sequence (P17787 whole entry): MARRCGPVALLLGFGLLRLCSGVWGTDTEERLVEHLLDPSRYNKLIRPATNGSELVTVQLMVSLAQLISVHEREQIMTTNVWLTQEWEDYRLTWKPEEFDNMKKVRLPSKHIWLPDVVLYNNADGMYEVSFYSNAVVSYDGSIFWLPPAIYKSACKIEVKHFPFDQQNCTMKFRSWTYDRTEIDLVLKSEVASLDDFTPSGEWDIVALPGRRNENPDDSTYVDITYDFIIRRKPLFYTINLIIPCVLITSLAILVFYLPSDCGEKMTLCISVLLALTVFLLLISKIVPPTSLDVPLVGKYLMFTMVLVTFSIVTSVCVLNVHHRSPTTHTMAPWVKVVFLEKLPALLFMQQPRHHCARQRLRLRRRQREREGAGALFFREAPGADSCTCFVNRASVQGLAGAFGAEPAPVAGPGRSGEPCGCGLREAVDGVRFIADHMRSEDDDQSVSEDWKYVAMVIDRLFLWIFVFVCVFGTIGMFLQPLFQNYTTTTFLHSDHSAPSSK
Neuronal acetylcholine receptor; alpha3/beta2, sequence (P32297 whole entry): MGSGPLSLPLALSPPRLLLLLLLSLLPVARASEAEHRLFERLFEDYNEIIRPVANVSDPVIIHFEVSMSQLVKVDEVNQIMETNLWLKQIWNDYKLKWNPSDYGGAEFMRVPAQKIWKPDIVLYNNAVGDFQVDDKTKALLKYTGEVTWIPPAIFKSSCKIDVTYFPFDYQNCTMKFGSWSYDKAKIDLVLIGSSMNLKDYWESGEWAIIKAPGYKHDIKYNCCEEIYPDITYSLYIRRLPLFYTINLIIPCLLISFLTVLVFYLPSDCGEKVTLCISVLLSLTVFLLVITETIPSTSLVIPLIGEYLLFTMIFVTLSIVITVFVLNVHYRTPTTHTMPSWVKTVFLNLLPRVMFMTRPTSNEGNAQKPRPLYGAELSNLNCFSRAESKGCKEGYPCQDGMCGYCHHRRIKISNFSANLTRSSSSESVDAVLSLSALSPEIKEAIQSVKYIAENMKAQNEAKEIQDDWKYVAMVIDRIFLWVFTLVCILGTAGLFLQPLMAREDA

[8] = test system: Rattus norvegicus; assay: Analgesic activity in Oxaliplatin-induced cold allodynia SPF male Sprague-Dawley rat assessed as reduction in pain-relieving effect at 500 microg/kg, iv measured at 1 to 24 hrs; assay type: functional, organism-based; settings: dose 500.0 µg/kg, time 1-24 hrs
[9] = target: Neuronal acetylcholine receptor subunit alpha-7 (Homo sapiens, UniProt P36544); assay: Inhibition of human alpha7 nAChR assessed as reduction in acetylcholine-induced current incubated for 5 mins by two electrode voltage-clamp assay
Neuronal acetylcholine receptor subunit alpha-7, sequence (P36544 whole entry): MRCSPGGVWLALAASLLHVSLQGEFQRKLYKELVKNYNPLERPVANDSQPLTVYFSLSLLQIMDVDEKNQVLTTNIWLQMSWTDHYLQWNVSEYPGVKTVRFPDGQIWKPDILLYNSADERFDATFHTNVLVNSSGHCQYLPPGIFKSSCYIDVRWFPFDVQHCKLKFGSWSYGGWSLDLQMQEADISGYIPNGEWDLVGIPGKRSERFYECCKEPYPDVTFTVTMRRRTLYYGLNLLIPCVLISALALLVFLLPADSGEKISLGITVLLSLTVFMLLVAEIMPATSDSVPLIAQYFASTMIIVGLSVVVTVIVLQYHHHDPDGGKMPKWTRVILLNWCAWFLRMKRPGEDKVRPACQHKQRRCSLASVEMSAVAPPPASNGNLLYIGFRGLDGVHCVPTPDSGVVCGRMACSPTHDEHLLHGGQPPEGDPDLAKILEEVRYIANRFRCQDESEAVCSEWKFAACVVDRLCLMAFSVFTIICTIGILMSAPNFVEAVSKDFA

[10] = Stability in human serum assessed as parent compound remaining incubated at 24 hrs by RP-HPLC analysis; assay type: ADME, cell-free; settings: for remaining at 24 h: human serum, read-out: Stability; for Stability: serum, 24 h
[11] = Stability in human serum assessed as parent compound remaining incubated measured upto 48 hrs by RP-HPLC analysis; assay type: ADME, cell-free
[12] = Antagonist activity at rat alpha9alpha10 nAChR expressed in acetylcholine-induced Xenopus laevis oocytes assessed as inhibition of acetylcholine-induced current at -80 mV holding potential incubated for 5 mins by two electrode voltage-clamp assay; assay type: cell-based; settings: Oocyte
[13] = test system: Rattus norvegicus; assay: Analgesic activity in Oxaliplatin-induced cold allodynia SPF male Sprague-Dawley rat assessed as reduction in pain-relieving effect by measuring acetone response score at 200 microg/kg, iv measured at 48 hrs; assay type: functional, organism-based; settings: dose 200.0 µg/kg
[14] = test system: Rattus norvegicus; assay: Analgesic activity in Oxaliplatin-induced cold allodynia iv dosed SPF male Sprague-Dawley rat assessed as reduction in pain-relieving effect measured at 72 hrs; assay type: functional, organism-based; settings: dose 500.0 µg/kg
[15] = test system: Rattus norvegicus; assay: Analgesic activity in Oxaliplatin-induced cold allodynia SPF male Sprague-Dawley rat assessed as latency time at 500 microg/kg, iv measured at 48 hrs by cold plate test; assay type: functional; settings: dose 500 µg/kg
[16] = species on record: Homo sapiens; assay: Inhibition of human alpha1beta1deltagamma nAChR assessed as reduction in acetylcholine-induced current at 10 to 100 nM incubated for 5 mins by two electrode voltage-clamp assay relative to control; settings: dose 10-100 nM
[17] = Stability in human serum assessed as half life incubated upto 192 hrs by RP-HPLC analysis; assay type: ADME, cell-free
[18] = test system: Rattus norvegicus; assay: Analgesic activity in Oxaliplatin-induced cold allodynia SPF male Sprague-Dawley rat assessed as reduction in pain-relieving effect at 500 microg/kg, iv measured at 24 to 48 hrs; assay type: functional, organism-based; settings: dose 500.0 µg/kg, time 24-48 hrs
[19] = test system: Rattus norvegicus; assay: Analgesic activity in Oxaliplatin-induced cold allodynia SPF male Sprague-Dawley rat assessed as reduction in pain-relieving effect by measuring acetone response score at 50 microg/kg, iv measured at 48 hrs; assay type: functional, organism-based; settings: dose 50.0 µg/kg
[20] = target: T2, Neuronal acetylcholine receptor; alpha4/beta4 (Homo sapiens) (UniProt P30926+P43681); assay: Inhibition of human alpha4beta4 nAChR assessed as reduction in acetylcholine-induced current at 100 nM incubated for 5 mins by two electrode voltage-clamp assay relative to control; assay type: protein-complex assay
[21] = species on record: Homo sapiens; assay: Inhibition of human alpha1beta1epsilondelta nAChR assessed as reduction in acetylcholine-induced current at 10 to 100 nM incubated for 5 mins by two electrode voltage-clamp assay relative to control; settings: dose 10-100 nM
[22] = target: T2, Neuronal acetylcholine receptor; alpha4/beta4 (Homo sapiens); assay: Inhibition of human alpha4beta4 nAChR assessed as reduction in acetylcholine-induced current at 10 to 100 nM incubated for 5 mins by two electrode voltage-clamp assay relative to control; assay type: protein-complex assay; settings: dose 10-100 nM
[23] = test system: Rattus norvegicus; assay: Analgesic activity in Oxaliplatin-induced cold allodynia SPF male Sprague-Dawley rat assessed as increase in latency at 500 microg/kg, iv measured at 72 hrs by cold plate test; assay type: functional, organism-based; settings: dose 500.0 µg/kg
[24] = target: T2, Neuronal acetylcholine receptor; alpha4/beta4 (Homo sapiens); assay: Inhibition of human alpha4beta4 nAChR assessed as reduction in acetylcholine-induced current at 10 nM incubated for 5 mins by two electrode voltage-clamp assay; assay type: protein-complex assay
[25] = target: Neuronal acetylcholine receptor; alpha3/beta4 (Homo sapiens) (UniProt P30926+P32297); assay: Inhibition of human alpha3beta4 nAChR assessed as reduction in acetylcholine-induced current at 10 to 100 nM incubated for 5 mins by two electrode voltage-clamp assay relative to control; assay type: protein-complex assay; settings: dose 10-100 nM

Structure (SMILES)	inhibition [1] [%]	Activity [2]	IC50 [3] [nM]	remaining at 48 h [5] [%]	IC50 [6] [nM]	IC50 [7] [nM]	IC50 [9] [nM]	remaining at 24 h [10] [%]	Stability [10] [%]	Stability [11]	also measured
CC[C@H](C)[C@H](NC(=O)[C@H](CC(=O)O)NC(=O)[C@@H]1CCCN1C(=O)[C@H](CC(N)=O)NC(=O)[C@H](CC(N)=O)NC(=O)[C@@H](NC(=O)[C@H](CO)NC(=O)[C@H](CS)NC(=O)[C@H](C)NC(=O)[C@@H]1CCCN1C(=O)[C@H](Cc1cnc[nH]1)NC(=O)[C@H](CN)NC(=O)[C@H](CS)NC(=O)[C@H](CS)NC(=O)CN)C(C)C)C(=O)N[C@@H](CS)C(N)=O (HELM PEPTIDE1{G.C.C.[NC[C@H](N[*:1])C(=O)[*:2]].H.P.A.C.S.V.N.N.P.D.I.C.[am]}$$$$V2.0)	80	Active	4	< 30	4	20.6	206	58.6	57.3		half-life [4]: 26.2 h; Activity [8]: Active
CC[C@H](C)[C@@H]1NC(=O)[C@H](CC(=O)O)NC(=O)[C@@H]2CCCN2C(=O)[C@H](CC(N)=O)NC(=O)[C@H](CC(N)=O)NC(=O)[C@H](C(C)C)NC(=O)[C@H](CO)NC(=O)[C@@H]2CSSC[C@@H]3NC(=O)CNC(=O)[C@@H](N)CC(=O)NC[C@@H](C(N)=O)NC(=O)[C@H](CSSC[C@H](NC3=O)C(=O)N[C@@H](CN)C(=O)N[C@@H](Cc3cnc[nH]3)C(=O)N3CCC[C@H]3C(=O)N[C@@H](C)C(=O)N2)NC1=O (HELM PEPTIDE1{D.G.C.C.[NC[C@H](N[*:1])C(=O)[*:2]].H.P.A.C.S.V.N.N.P.D.I.C.[O=C([C@H](CN[*:3])N[*:1])[*:2]].[am]}$PEPTIDE1,PEPTIDE1,1:R3-18:R3|PEPTIDE1,PEPTIDE1,3:R3-9:R3|PEPTIDE1,PEPTIDE1,4:R3-17:R3$$$V2.0)	90				3.2			57.3	72.4	Stable	
CC[C@H](C)[C@@H]1NC(=O)[C@H](CC(=O)O)NC(=O)[C@@H]2CCCN2C(=O)[C@H](CC(N)=O)NC(=O)[C@H](CC(N)=O)NC(=O)[C@H](C(C)C)NC(=O)[C@H](CO)NC(=O)[C@@H]2CSSC[C@H](NC(=O)CN)C(=O)N[C@H](C(=O)N[C@@H](CN)C(=O)N[C@@H](Cc3cnc[nH]3)C(=O)N3CCC[C@H]3C(=O)N[C@@H](C)C(=O)N2)C(C)(C)SSC[C@@H](C(N)=O)NC1=O (HELM PEPTIDE1{G.C.[Pen].[NC[C@H](N[*:1])C(=O)[*:2]].H.P.A.C.S.V.N.N.P.D.I.C.[am]}$PEPTIDE1,PEPTIDE1,2:R3-8:R3|PEPTIDE1,PEPTIDE1,3:R3-16:R3$$$V2.0)	50			60	9.9			80			IC50 [12]: 2.7 nM
CC[C@H](C)[C@@H]1NC(=O)[C@H](CC(=O)O)NC(=O)[C@@H]2CCCN2C(=O)[C@H](CC(N)=O)NC(=O)[C@H](CC(N)=O)NC(=O)[C@H](C(C)C)NC(=O)[C@H](CO)NC(=O)[C@@H]2CSSC[C@H](NC(=O)CN)C(=O)N[C@@H](CSSC(C)(C)[C@@H](C(N)=O)NC1=O)C(=O)N[C@@H](CN)C(=O)N[C@@H](Cc1cnc[nH]1)C(=O)N1CCC[C@H]1C(=O)N[C@@H](C)C(=O)N2 (HELM PEPTIDE1{G.C.C.[NC[C@H](N[*:1])C(=O)[*:2]].H.P.A.C.S.V.N.N.P.D.I.[Pen].[am]}$PEPTIDE1,PEPTIDE1,2:R3-8:R3|PEPTIDE1,PEPTIDE1,3:R3-16:R3$$$V2.0)		Active	4.1	85	4	21.8	133	90			Activity [13]: Active; Activity [14]: Dose-dependent-effect; Time [15]: 140 s; inhibition [16]: < 1%; half-life [17]: 142 h; Activity [18]: Active; Activity [19]: inactive; inhibition [20]: 20%; inhibition [21]: < 1%; inhibition [22]: < 1%; Activity [23]: Active; inhibition [24]: inactive; inhibition [25]: < 1%
CC[C@H](C)[C@@H]1NC(=O)[C@H](CC(=O)O)NC(=O)[C@@H]2CCCN2C(=O)[C@H](CC(N)=O)NC(=O)[C@H](CC(N)=O)NC(=O)[C@H](C(C)C)NC(=O)[C@H](CO)NC(=O)[C@@H]2CSSC[C@@H]3NC(=O)CNC(=O)[C@@H](N)CC(=O)NCC[C@@H](C(N)=O)NC(=O)[C@H](CSSC[C@H](NC3=O)C(=O)N[C@@H](CN)C(=O)N[C@@H](Cc3cnc[nH]3)C(=O)N3CCC[C@H]3C(=O)N[C@@H](C)C(=O)N2)NC1=O (HELM PEPTIDE1{D.G.C.C.[NC[C@H](N[*:1])C(=O)[*:2]].H.P.A.C.S.V.N.N.P.D.I.C.[Dab].[am]}$PEPTIDE1,PEPTIDE1,1:R3-18:R3|PEPTIDE1,PEPTIDE1,3:R3-9:R3|PEPTIDE1,PEPTIDE1,4:R3-17:R3$$$V2.0)	90				3.3			64.6		Stable	
